Source: a polymer gas permeability compilation

`*c1ccc(Oc2ccc(C(c3ccc(Oc4ccc(-n5c(=O)c6cc7c(=O)n(*)c(=O)c7cc6c5=O)cc4)cc3)(C(F)(F)F)C(F)(F)F)cc2)cc1` (repeat unit) gave a CH4 permeability of 0.499 Barrer, a CO2 permeability of 14.7 Barrer and an H2 permeability of 29.1 Barrer. For the same compound, the N2 permeability was 0.8 Barrer and the O2 permeability was 3.94 Barrer. Compound `*O[Si](*)(C)CCCCCC` (repeat unit) has an N2 permeability of 103 Barrer and an O2 permeability of 236 Barrer. With `*c1ccc(Cc2ccc(N3C(=O)c4ccc(C(c5ccc6c(c5)C(=O)N(*)C6=O)(C(F)(F)F)C(F)(F)F)cc4C3=O)c(O)c2)cc1O` (repeat unit) the CH4 permeability was 0.0562 Barrer, the CO2 permeability was 4.85 Barrer and the N2 permeability was 0.168 Barrer. It also gave an O2 permeability of 1.22 Barrer. With `*Oc1ccc(-c2c(-c3ccc(Br)cc3)c(-c3ccc(Br)cc3)c(-c3ccc4c(c3)Oc3c(C#N)c(*)c(*)c(C#N)c3O4)c(-c3ccc(Br)cc3)c2-c2ccc(Br)cc2)cc1O*` (repeat unit) the CH4 permeability was 102 Barrer, the CO2 permeability was 1430 Barrer and the H2 permeability was 694 Barrer. The N2 permeability was 54 Barrer and the O2 permeability was 203 Barrer. `*/C=C/c1ccc(*)cc1[Si](C)(C)CCCCCCCCCCCCCCCCCC` (repeat unit) showed a CO2 permeability of 61 Barrer, an N2 permeability of 4.5 Barrer and an O2 permeability of 12 Barrer. In the case of `*Oc1cc(C)c(C(c2cc(C(C)C)c(Oc3ccc(S(=O)(=O)c4ccc(*)cc4)cc3)cc2C)c2ccccc2C(=O)O)cc1C(C)C` (repeat unit), the CH4 permeability was 1.13 Barrer, the CO2 permeability was 25.1 Barrer and the H2 permeability was 49.6 Barrer. The N2 permeability was 0.757 Barrer and the O2 permeability was 4.53 Barrer. `*c1ccc(Oc2ccc(C3(c4ccc(Oc5ccc(N6C(=O)c7ccc(C(c8ccc9c(c8)C(=O)N(*)C9=O)(C(F)(F)F)C(F)(F)F)cc7C6=O)cc5)cc4)c4ccccc4-c4ccccc43)cc2)cc1` (repeat unit) showed a CH4 permeability of 0.69 Barrer, a CO2 permeability of 19.9 Barrer and an H2 permeability of 61.3 Barrer. It also gave an N2 permeability of 1.26 Barrer and an O2 permeability of 4.88 Barrer. In the case of `*Oc1cc2c(cc1O*)C1(c3cc(C)c(C)cc3-2)c2cc(C)c(C)cc2-c2cc3c(cc21)Oc1c(C#N)c(*)c(*)c(C#N)c1O3` (repeat unit), the CH4 permeability was 1100 Barrer, the CO2 permeability was 13100 Barrer and the H2 permeability was 6700 Barrer. The N2 permeability was 658 Barrer and the O2 permeability was 2360 Barrer. With `*c1ccc(C(C)(C)c2ccc(-c3nc4cc(-c5ccc6[nH]c(*)nc6c5)ccc4[nH]3)cc2)cc1` (repeat unit) the CH4 permeability was 0.07 Barrer, the CO2 permeability was 2.91 Barrer and the H2 permeability was 12.2 Barrer. For the same compound, the N2 permeability was 0.13 Barrer and the O2 permeability was 0.6 Barrer. `*Nc1ccc(C(=O)c2ccc(NC(=O)c3cccc(C(*)=O)c3)cc2)cc1` (repeat unit) gave a CO2 permeability of 0.32 Barrer and an O2 permeability of 0.069 Barrer. With `*Oc1cc2c(cc1O*)C1(CC2(C)C)CC(C)(C)c2cc3c(cc21)Oc1c(CN)c(*)c(*)c(CN)c1O3` (repeat unit) the CH4 permeability was 257 Barrer, the CO2 permeability was 1590 Barrer and the H2 permeability was 2280 Barrer. For the same compound, the N2 permeability was 176 Barrer and the O2 permeability was 752 Barrer.
